Results on one molecule are retold here after US11919856B2, “Compounds” (UCL BUSINESS LTD, priority 2018, dated 2024).

The target in data set [1] is T1, M α1-antitrypsin (Homo sapiens, UniProt P01009).
T1 construct: Alpha1-antitrypsin was purified from the plasma of ZZ and MM α1-antitrypsin homozygotes; from tissue; host or cells: plasma of MM homozygotes
Put plainly: Compound association experiments (intrinsic tryptophan fluorescence), M α1-antitrypsin. In kind it is binding. How it is done:
The intrinsic tryptophan fluorescence of α1-antitrypsin is dominated by Trp194 in the breach region (Tew et al. J Mol Biol. 2001 Nov. 9; 313(5):1161-9) and can be used to monitor the progress of compound binding. Plasma M and Z α1-antitrypsin were diluted to 0.2 mg/ml in 100 μM PBS, and Compound 1 (or an equivalent volume of DMSO) added to a concentration of 10 μM. Fluorescence (λex=280 nm, λem=330 nm) was monitored for at least 2 hours, and the half-time of change was calculated.
Kinetic data in stopped flow experiments were fitted to exponential decay curves with offset and linear slope, to account for a constant drift in the background, resulting in observed pseudo-first-order rate constants k(obs): y=A0·e^−k(obs)t+slope·t+offset where t=time and Ao=amplitude at t=0. The second-order on-rate was then obtained as the slope when plotting k(obs) values versus compound concentration. Off-rates were calculated from the on-rates and the KD values determined from the binding assays. Cell Biology

Data set [2] deals with T1, M α1-antitrypsin. Put plainly: Stoichiometry of inhibition against chymotrypsin, M α1-antitrypsin. Type of data set: biochemical. To be noted: M α1-antitrypsin pre-incubated with compound. How it is done:
(§1) Mutations that interfere with the opening of […] or that perturb its interaction with the N-terminal portion of the reactive centre loop alter the ability of serpins to inhibit target proteases. The stoichiometry of inhibition (SI) was determined for M and Z α1-antitrypsin in discontinuous experiments against a model target protease, chymotrypsin. The pre-incubation of both variants with Compound 1 led to a >98% loss of protease inhibitory activity. […] To investigate whether this activity was consistent with action as a chemical chaperone, M and Z α1-antitrypsin were unfolded in vitro into 6 M guanidine hydrochloride, and rapidly refolded by snap dilution into denaturant-free buffer in the presence or absence of Compound 1.

The target of data set [3] is T2, Z α1-antitrypsin (Homo sapiens, UniProt P01009, E366K/V237A). Put plainly: Stoichiometry of inhibition against chymotrypsin, Z α1-antitrypsin. Type of data set: biochemical. To be noted: Z α1-antitrypsin pre-incubated with compound. How it is done:
as §1

Data set [4] is described as follows: In vitro clearance in cryopreserved hepatocytes, human. In kind it is in vitro ADME.
A short description of data set [5]: Total and free drug in blood and liver of Z α1-antitrypsin transgenic mice. To be noted: for systemic free drug levels relative to in vitro secretion potency: duration of the dosing period. Type of data set: in vivo, mouse. How it is done: To explore the PK-PD relationship of Compound 1, Z α1-antitrypsin transgenic animals were dosed with 100, 30 or 10 mg/kg Compound 1 three times a day and on day 6 blood and liver were harvested at 3 hr (˜Cmax) and 8 hr (Cmin) after the dose for the measurement of total and free drug in both tissues. Blood was also harvested for the measurement of monomeric Z α1-antitrypsin in plasma. Total concentrations of Compound 1 were determined by specific LC-MS/MS assay and the free unbound drug in both tissues was determined using equilibrium dialysis and used to derive unbound concentrations.

Data set [6] deals with T2, Z α1-antitrypsin. Put plainly: Biochemical competition binding assay (TR-FRET), Z α1-antitrypsin. The conditions noted are these: competition binding with fluorescently labelled derivative; read-out: affinity (KD) to Z α1-antitrypsin. The arrangement: a random insertion of the human Z α1-antitrypsin gene; from tissue; host or cells: liver and plasma of Z α1-antitrypsin transgenic mice (human Z transgene). How it is done:
Alpha1-antitrypsin was purified from the plasma of ZZ and MM α1-antitrypsin homozygotes as described in Lomas et al., Biochemistry. 1993; 32:500-8. Recombinant Cys232Ser α1-antitrypsin was expressed and purified as detailed in Irving et al. Methods Enzymol. 2011; 501:421-66 and Haq et al. Biosci Rep. 2013; 33(3):e00046.
A fluorescent derivative of compound 1 was prepared by derivatizing compound 1 at its ring nitrogen atom with an Alexa Fluor 488 label via a short organic linker group.
A serial dilution of test compounds in DMSO was diluted 25-fold with assay buffer, and 2.5 μl of this intermediate dilution transferred to a black, low-volume 384-well microtitre plate (Greiner BioOne; product no. 784076). […]
Plates were sealed and incubated overnight at room temperature, or for 3 days at 4° C. then 6 hours at room temperature. […] The TR-FRET signal was read on an Envision plate reader, by excitation of Terbium at 337 nm and detection of emission at 520 nm and 495 nm.
Dissociation constants (KD) for the affinity of compounds to Z-a1AT or M-a1AT protein were derived from the pIC50 values according to the Cheng-Prusoff equation, taking into account the concentration of fluorescent ligand used in relation to its affinity as determined in independent Fluorescence Polarisation and TR-FRET experiments: KD(compound)=10^−pIC50(compound)/([…]. Compound Association Experiments

T1 sequence (P01009 25-418): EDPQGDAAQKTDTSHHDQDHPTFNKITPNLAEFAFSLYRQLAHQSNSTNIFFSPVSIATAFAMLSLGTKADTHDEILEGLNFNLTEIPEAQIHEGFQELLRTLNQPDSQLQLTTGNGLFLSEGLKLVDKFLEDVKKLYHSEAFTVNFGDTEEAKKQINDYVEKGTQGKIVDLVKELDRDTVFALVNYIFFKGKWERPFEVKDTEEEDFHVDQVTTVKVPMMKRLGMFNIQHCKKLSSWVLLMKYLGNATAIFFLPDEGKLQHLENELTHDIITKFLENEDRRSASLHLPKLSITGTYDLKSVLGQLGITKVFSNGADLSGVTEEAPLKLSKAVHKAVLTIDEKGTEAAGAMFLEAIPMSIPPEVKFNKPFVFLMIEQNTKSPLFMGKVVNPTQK
T2 sequence (P01009 25-418 V237A/E366K): as the sequence (P01009 25-418) above, with V213A, E342K counted along it

For orientation: Kd means the equilibrium constant for the complex coming apart. With `CCC[C@@H](NC(=O)c1cccc2c1CC(=O)N2)[C@@H](O)c1cccc(F)c1C` [Compound 1, N-[(1S,2R)-1-(3-fluoro-2-methylphenyl)-1-hydroxypentan-2-yl]-2-oxo-2,3-dihydro-1H-indole-4-carboxamide], the koff at M α1-antitrypsin [1] (calculated from on-rate and KD, read-out: first-order dissociation rate) is 1.6e-05 s⁻¹. In addition, the kon on M α1-antitrypsin [1] (read-out: second-order association rate) stood at 210 M⁻¹ s⁻¹. Also, the “loss of protease inhibitory activity” value on M α1-antitrypsin [2] and on Z α1-antitrypsin [3] was greater than 98% each time. Also, the “in vitro clearance in cryopreserved hepatocytes” value in data set [4] is 0.3 ± 0.05 mL/min/g. The “systemic free drug levels relative to in vitro secretion potency” value in data set [5] (10 mg/kg) is recorded as “EC10-EC20”; in data set [5] (30 mg/kg) it was “EC20-EC30”. In addition, in data set [5] (30 mg/kg and 10 mg/kg three times a day, large part of the dosing period), the “free drug levels in blood” value is recorded as “significantly below the cellular EC50 concentrations”. In data set [5] (Z α1-antitrypsin transgenic, mouse, blood, oral, 100 mg/kg three times a day, day 6, majority of the dosing period, read-out: Cmin levels of the free drug concentration in blood), the concentration at 8 h is no less than 300 nM. In addition, the “free and total drug concentrations in the liver” value in data set [5] (transgenic mice, day 6) is listed as “equivalent to those in blood”. Further, the Kd at Z α1-antitrypsin [6] was found to be 1.5 nM.
